Test results taken from ChEMBL document CHEMBL3779894, “Synthesis and in Vitro Screening of New Series of 2,6-Dipeptidyl-anthraquinones: Influence of Side Chain Length on HIV-1 Nucleocapsid Inhibitors” (J Med Chem, 2016).
Calls of active or inactive are those of the source. The rule behind the calls is not given here.

Assays:
[1] = test system: Human immunodeficiency virus 1; assay: Binding affinity to HIV-1 29-mer TAR RNA assessed as 1:1 compound-RNA complex formation at 10 uM by ESI-MS analysis
[2] = Inhibition of recombinant full length HIV-1 nucleocapsid assessed as inhibition of nucleocapsid-mediated melting of TAR RNA measured 3 times with 1 min interval by FRET based assay; parameters: species or system Human immunodeficiency virus 1
[3] = test system: Human immunodeficiency virus 1; assay: Binding affinity to HIV-1 cTAR DNA-29-mer TAR RNA duplex assessed as increase in melting temperature at 10 uM by fluorescence quenching assay
[4] = test system: Human immunodeficiency virus 1; assay: Binding affinity to HIV-1 29-mer TAR RNA assessed as increase in melting temperature at 10 uM by fluorescence quenching assay
[5] = Inhibition of recombinant full length HIV-1 nucleocapsid assessed as inhibition of nucleocapsid-mediated melting of cTAR DNA measured 3 times with 1 min interval by FRET based assay; parameters: species or system Human immunodeficiency virus 1
[6] = test system: Human immunodeficiency virus 1; assay: Binding affinity to HIV-1 cTAR DNA assessed as 2:1 […] complex formation at 10 uM by ESI-MS analysis
[7] = test system: Human immunodeficiency virus 1; assay: Inhibition of recombinant full length HIV-1 nucleocapsid assessed as inhibition of TAR RNA/cTAR DNA annealing upto 100 uM preincubated with oligonucleotides for 15 mins followed by nucleocapsid addition measured after 15 mins by NAME assay
[8] = test system: Human immunodeficiency virus 1; assay: Binding affinity to HIV-1 cTAR DNA assessed as increase in melting temperature at 10 uM by fluorescence quenching assay
[9] = Inhibition of recombinant full length HIV-1 nucleocapsid assessed as inhibition of TAR RNA/cTAR DNA annealing preincubated with oligonucleotides for 15 mins followed by nucleocapsid addition measured after 15 mins by NAME assay; parameters: species or system Human immunodeficiency virus 1
[10] = test system: Human immunodeficiency virus 1; assay: Selectivity index, ratio of melting temperature for HIV-1 29-mer TAR RNA to HIV-1 cTAR DNA
[11] = test system: Human immunodeficiency virus 1; assay: Inhibition of recombinant full length HIV-1 nucleocapsid assessed as inhibition of TAR RNA /cTAR DNA annealing at 50 to 100 uM preincubated with oligonucleotides for 15 mins followed by nucleocapsid addition measured after 15 mins by NAME assay
[12] = test system: Human immunodeficiency virus 1; assay: Binding affinity to HIV-1 29-mer TAR RNA assessed as 3:1 compound-RNA complex formation at 10 uM by ESI-MS analysis
[13] = test system: Human immunodeficiency virus 1; assay: Inhibition of recombinant full length HIV-1 nucleocapsid assessed as inhibition of TAR RNA /cTAR DNA annealing at 20 to 50 uM preincubated with oligonucleotides for 15 mins followed by nucleocapsid addition measured after 15 mins by NAME assay
[14] = test system: Human immunodeficiency virus 1; assay: Binding affinity to HIV-1 cTAR DNA at 10 uM by ESI-MS analysis
[15] = test system: Human immunodeficiency virus 1; assay: Binding affinity to HIV-1 cTAR DNA assessed as 4:1 […] complex formation at 10 uM by ESI-MS analysis
[16] = test system: Human immunodeficiency virus 1; assay: Binding affinity to HIV-1 29-mer TAR RNA at 10 uM by ESI-MS analysis

Compound | Activity [1] | IC50 [2] [µM] | Activity [3] | Activity [4] | IC50 [5] [µM] | Activity [6] | inhibition [7] | Activity [8] | IC50 [9] [µM] | Ratio [10] | inhibition [11] | Activity [12] | inhibition [13] | Activity [14] | Activity [15] | Activity [16]
O=C(CNC(=O)C1CCNCC1)Nc1ccc2c(c1)C(=O)c1ccc(NC(=O)CNC(=O)C3CCNCC3)cc1C2=O | Active | 10.7 | Active | Active | 10.7 | Active | inactive | Active | – | – | – | – | – | – | – | –
NCCC(N)C(=O)NCC(=O)Nc1ccc2c(c1)C(=O)c1ccc(NC(=O)CNC(=O)C(N)CCN)cc1C2=O (centres undefined) | – | 3.87 | Active | Active | 4.61 | – | – | Active | 81.4 | 0.97 | Active | – | – | – | – | –
C[C@H](NC(=O)[C@H]1CC[C@H](CN)CC1)C(=O)Nc1ccc2c(c1)C(=O)c1ccc(NC(=O)[C@H](C)NC(=O)[C@H]3CC[C@H](CN)CC3)cc1C2=O | – | 14.8 | – | – | 14.6 | – | inactive | – | – | – | – | – | – | – | – | –
C[C@H](NC(=O)C(N)Cc1ccc(N)cc1)C(=O)Nc1ccc2c(c1)C(=O)c1ccc(NC(=O)[C@H](C)NC(=O)C(N)Cc3ccc(N)cc3)cc1C2=O (some centres undefined) | – | 7.29 | – | – | 7.53 | – | inactive | – | – | – | – | – | – | – | – | –
NCCCC(N)C(=O)NCC(=O)Nc1ccc2c(c1)C(=O)c1ccc(NC(=O)CNC(=O)C(N)CCCN)cc1C2=O (centres undefined) | – | 2.62 | Active | Active | 1.81 | – | – | Active | 54.1 | 0.72 | – | Active | Active | Active | – | –
NCCC(=O)NCC(=O)Nc1ccc2c(c1)C(=O)c1ccc(NC(=O)CNC(=O)CCN)cc1C2=O | – | 6.42 | Active | Active | 4.06 | – | – | Active | > 100 | – | Active | – | – | – | – | –
C[C@H](NC(=O)C1(N)CCNCC1)C(=O)Nc1ccc2c(c1)C(=O)c1ccc(NC(=O)[C@H](C)NC(=O)C3(N)CCNCC3)cc1C2=O | – | 40.2 | – | – | 14.6 | – | inactive | – | – | – | – | – | – | – | – | –
C[C@H](NC(=O)C(N)CN)C(=O)Nc1ccc2c(c1)C(=O)c1ccc(NC(=O)[C@H](C)NC(=O)C(N)CN)cc1C2=O (some centres undefined) | – | 67.1 | – | inactive | 44.1 | – | inactive | inactive | – | – | – | – | – | – | – | –
Nc1ccc(CC(N)C(=O)NCC(=O)Nc2ccc3c(c2)C(=O)c2ccc(NC(=O)CNC(=O)C(N)Cc4ccc(N)cc4)cc2C3=O)cc1 (centres undefined) | – | 7.72 | inactive | inactive | 7.78 | – | inactive | inactive | > 100 | – | – | – | – | – | – | –
C[C@H](NC(=O)CCN)C(=O)Nc1ccc2c(c1)C(=O)c1ccc(NC(=O)[C@H](C)NC(=O)CCN)cc1C2=O | – | 39.5 | – | – | 12.7 | – | inactive | – | – | – | – | – | – | – | – | –
C[C@H](NC(=O)C1CCNCC1)C(=O)Nc1ccc2c(c1)C(=O)c1ccc(NC(=O)[C@H](C)NC(=O)C3CCNCC3)cc1C2=O | Active | 20.8 | – | – | 12 | Active | inactive | – | – | – | – | – | – | – | – | –
C[C@H](NC(=O)C(N)CCCN)C(=O)Nc1ccc2c(c1)C(=O)c1ccc(NC(=O)[C@H](C)NC(=O)C(N)CCCN)cc1C2=O (some centres undefined) | – | 4.91 | Active | Active | 1.93 | – | – | Active | 49.1 | 0.58 | Active | Active | – | – | Active | –
C[C@H](NC(=O)C(N)CCCCN)C(=O)Nc1ccc2c(c1)C(=O)c1ccc(NC(=O)[C@H](C)NC(=O)C(N)CCCCN)cc1C2=O (some centres undefined) | – | 6.61 | Active | Active | 2.68 | – | – | Active | 80.4 | 0.56 | Active | Active | – | – | Active | –
C[C@H](NC(=O)C(N)CCN)C(=O)Nc1ccc2c(c1)C(=O)c1ccc(NC(=O)[C@H](C)NC(=O)C(N)CCN)cc1C2=O (some centres undefined) | – | 6.9 | Active | Active | 4.28 | – | inactive | Active | > 100 | 0.5 | – | – | – | – | – | –
NCCCCC(N)C(=O)NCC(=O)Nc1ccc2c(c1)C(=O)c1ccc(NC(=O)CNC(=O)C(N)CCCCN)cc1C2=O (centres undefined) | – | 2.12 | Active | Active | 1.11 | – | – | Active | 23.5 | 0.72 | – | – | Active | Active | – | Active
NC1(C(=O)NCC(=O)Nc2ccc3c(c2)C(=O)c2ccc(NC(=O)CNC(=O)C4(N)CCNCC4)cc2C3=O)CCNCC1 | – | 7.79 | Active | Active | 5.13 | – | – | Active | > 100 | – | Active | – | – | – | – | –
NC[C@H]1CC[C@H](C(=O)NCC(=O)Nc2ccc3c(c2)C(=O)c2ccc(NC(=O)CNC(=O)[C@H]4CC[C@H](CN)CC4)cc2C3=O)CC1 | – | 11.3 | inactive | inactive | 9.75 | – | – | inactive | – | – | – | – | – | – | – | –
NCC(N)C(=O)NCC(=O)Nc1ccc2c(c1)C(=O)c1ccc(NC(=O)CNC(=O)C(N)CN)cc1C2=O (centres undefined) | – | 4.22 | Active | Active | 3.81 | – | – | Active | 103 | – | Active | – | – | – | – | –
